Measured values reported in patent publication US20060018921A1, “Histone deacetylase inhibitors and cognitive applications” (priority 2004, published 2006).
Entries after “also recorded” stand apart in the source; their conditions may differ. Starred links: 1 amine or outer side, 2 acyl side, 3 side chain; linkers in the order of their positions; H or OH if unused. Positions of bridges follow the written chain, without caps; N, C: chain ends. Non-standard residues stand in square brackets, D forms with d. Residues, ends and D or L forms follow the SMILES beside them. Chains are numbered I, II in the order given. Actinocin(9to1) = Cc1c2oc3c(C)ccc(C(=O)[*:1])c3nc-2c(C(=O)[*:2])c(N)c1=O; NMeV = CN[C@H](C(=O)O)C(C)C; Sar = CNCC(=O)O

Assays:
ERK1 = assay: P-ERK1 western blot, acute hippocampal slices, area CA1; conditions: slices treated 1 h; data not shown
histone H3 (Lys14) = assay: Acetylation of histone H3, acute hippocampal slices, area CA1; conditions: for histone H3 acetylation: slices treated 1 h, FSK 50 μM with 100 μM Ro20-1724, 4αP 3 μM, dFSK 50 μM with 100 μM Ro20-1724, U0126 20 μM, TSA 1.65 μM; for histone H3 acetylation / effect of PDA on histone H3 acetylation after pretreatment with MEK inhibitor: PDA 3 μM; for histone H3 acetylation / effect of NMDA on acetylation of histone H3 after pretreatment with MEK inhibitor / effect of FSK on histone H3 acetylation after pretreatment with MEK inhibitor / effect of PDA on histone H3 acetylation after pretreatment with MEK inhibitor: PD98059 50 μM; for effect of NMDA on acetylation of histone H3 after pretreatment with MEK inhibitor / effect of FSK on histone H3 acetylation after pretreatment with MEK inhibitor / effect of PDA on histone H3 acetylation after pretreatment with MEK inhibitor: U0126 20 μM; for effect of NMDA on acetylation of histone H3 after pretreatment with MEK inhibitor: 100 μM NMDA 10 min; for effect of FSK on histone H3 acetylation after pretreatment with MEK inhibitor: FSK 50 μM with 100 μM Ro20-1724
ERK2 = assay: P-ERK2 western blot, acute hippocampal slices, area CA1; conditions: for levels of P-ERK2: slices treated 1 h, FSK 50 μM with 100 μM Ro20-1724, U0126 20 μM, 4αP 3 μM, dFSK 50 μM with 100 μM Ro20-1724, TSA; for levels of P-ERK2 / effect of PDA on P-ERK2 after pretreatment with MEK inhibitor: PDA 3 μM; for levels of P-ERK2 / effect of NMDA on P-ERK2 after pretreatment with MEK inhibitor / effect of FSK on P-ERK2 after pretreatment with MEK inhibitor / effect of PDA on P-ERK2 after pretreatment with MEK inhibitor: PD98059 50 μM; for effect of NMDA on P-ERK2 after pretreatment with MEK inhibitor / effect of FSK on P-ERK2 after pretreatment with MEK inhibitor / effect of PDA on P-ERK2 after pretreatment with MEK inhibitor: U0126 20 μM; for effect of NMDA on P-ERK2 after pretreatment with MEK inhibitor: 100 μM NMDA 10 min; for effect of FSK on P-ERK2 after pretreatment with MEK inhibitor: FSK 50 μM with 100 μM Ro20-1724
[1] = tested on: Schaffer-collateral synapses; conditions: previous studies, Nguyen et al., 1994; cited from earlier work
[2] = tested on: histone H4 (Lys5/Lys8/Lys12/Lys16); assay: Acetylation of histone H4, acute hippocampal slices, area CA1; conditions: 100 μM NMDA 10 min, with or without U0126 or PD98059 pretreatment
[3] = 100 μM NMDA in Mg++-free ACSF for 10 min

For `CCCCCCCCCC(=O)O[C@@H]1[C@@H](C)[C@@]2(O)[C@@H](C=C(CO)C[C@@]3(O)C(=O)C(C)=C[C@@H]23)[C@@H]2C(C)(C)[C@]12OC(=O)CCCCCCCCC` [4αP, 4-α-phorbol 12,13-didecanoate], the “levels of P-ERK1” value (ERK1) was “no affect”, the “histone H3 acetylation” value (histone H3 (Lys14)) was “no effect on H3 acetylation” and the “histone H3 acetylation” value (histone H3 (Lys14); listed as 4 αP) was “no affect on the acetylation of histone H3”. For the same compound, the “levels of P-ERK2” value (ERK2) was “no effect on P-ERK2” and the “levels of P-ERK2” value (ERK2; listed as 4 αP) was “no affect”.

For `OC[C@H]1O[C@@H](n2cnc3cc(Cl)c(Cl)cc32)[C@H](O)[C@@H]1O` [DRB, 5,6-dichlorobenzimidazole riboside], the basal synaptic transmission [1] is listed as “no effect on basal synaptic transmission”.

In the case of `CN[C@H](CC(=O)O)C(=O)O` [NMDA], the “acetylation of histone H4 in area CA1” value [2] is reported as “no affect on acetylation of histone H4”, the “acetylation of histone H3 in area CA1” value (histone H3 (Lys14); [3]) is reported as “increased acetylation of histone H3; also recorded: significantly increased” and the “phosphorylation of ERK2 in area CA1” value (ERK2; [3]) is reported as “induced significant increases in P-ERK2; also recorded: significantly increased”.

For `COc1cccc(-c2cc(=O)c3ccccc3o2)c1N` [PD98059], the “effect of NMDA on acetylation of histone H3 after pretreatment with MEK inhibitor” value (histone H3 (Lys14)) was “blocked; also recorded: inhibited the affect of NMDA on acetylation of histone H3”, the “effect of FSK on histone H3 acetylation after pretreatment with MEK inhibitor” value (histone H3 (Lys14)) was “blocked; also recorded: inhibited” and the “effect of PDA on histone H3 acetylation after pretreatment with MEK inhibitor” value (histone H3 (Lys14)) was “blocked; also recorded: inhibited”. The “histone H3 acetylation” value (histone H3 (Lys14)) was “no effect on basal levels of acetylation of histone H3”, the “effect of NMDA on P-ERK2 after pretreatment with MEK inhibitor” value (ERK2) was “blocked; also recorded: inhibited the affect of NMDA on P-ERK2” and the “effect of FSK on P-ERK2 after pretreatment with MEK inhibitor” value (ERK2) was “blocked”. For the same compound, the “effect of PDA on P-ERK2 after pretreatment with MEK inhibitor” value (ERK2) was “blocked” and the “levels of P-ERK2” value (ERK2) was “diminished”.

For `CC(=O)O[C@@H]1[C@@H](C)[C@@]2(O)[C@@H](C=C(CO)C[C@]3(O)C(=O)C(C)=C[C@@H]23)[C@@H]2C(C)(C)[C@]12OC(C)=O` [PDA, phorbol 12,13-diacetate], the “levels of P-ERK1” value (ERK1) was “significantly increased”, the “histone H3 acetylation” value (histone H3 (Lys14)) was “significantly increased acetylation of histone H3” and the “levels of P-ERK2” value (ERK2) was “significantly increased; also recorded: significant increases in levels of P-ERK2”.

In the case of `N#CC(=C(/N)Sc1ccccc1N)/C(C#N)=C(\N)Sc1ccccc1N` [U0126], the “effect of NMDA on acetylation of histone H3 after pretreatment with MEK inhibitor” value (histone H3 (Lys14)) is reported as “blocked; also recorded: inhibited the affect of NMDA on acetylation of histone H3”, the “effect of FSK on histone H3 acetylation after pretreatment with MEK inhibitor” value (histone H3 (Lys14)) is reported as “blocked; also recorded: inhibited” and the “effect of PDA on histone H3 acetylation after pretreatment with MEK inhibitor” value (histone H3 (Lys14)) is reported as “blocked; also recorded: inhibited”. For the same compound, the “histone H3 acetylation” value (histone H3 (Lys14)) was “no effect on basal levels of acetylation of histone H3”, the “effect of NMDA on P-ERK2 after pretreatment with MEK inhibitor” value (ERK2) was “blocked; also recorded: inhibited the affect of NMDA on P-ERK2” and the “effect of FSK on P-ERK2 after pretreatment with MEK inhibitor” value (ERK2) was “blocked”. The “effect of PDA on P-ERK2 after pretreatment with MEK inhibitor” value (ERK2) was “blocked” and the “levels of P-ERK2” value (ERK2) was “diminished”.

For `Cc1c2oc3c(C)ccc(C(=O)N[C@@H]4C(=O)N[C@H](C(C)C)C(=O)N5CCC[C@H]5C(=O)N(C)CC(=O)N(C)[C@@H](C(C)C)C(=O)O[C@@H]4C)c3nc-2c(C(=O)N[C@@H]2C(=O)N[C@H](C(C)C)C(=O)N3CCC[C@H]3C(=O)N(C)CC(=O)N(C)[C@@H](C(C)C)C(=O)O[C@@H]2C)c(N)c1=O` [actinomycin D, Actinomycin D] (I: T[dV]P[Sar][NMeV] / II: T[dV]P[Sar][NMeV]; ester I:1-I:C, II:1-II:C; linker I:N-II:N via Actinocin(9to1)), the basal synaptic transmission [1] is given as “no effect on synaptic transmission”.

With `C=C[C@@]1(C)CC(=O)[C@@H]2[C@@]3(C)CCCC(C)(C)[C@@H]3[C@H](O)[C@H](OC(C)=O)[C@@]2(C)O1` [dFSK, 1,9 dideoxyforskolin] the “levels of P-ERK1” value (ERK1) was “no affect”, the “histone H3 acetylation” value (histone H3 (Lys14)) was “no affect on the acetylation of histone H3; also recorded: no effect on H3 acetylation” and the “levels of P-ERK2” value (ERK2) was “no affect; also recorded: no effect on P-ERK2”.
